pEC50: −log10 of the molar value. Starred links: 1 amine or outer side, 2 acyl side, 3 side chain; linkers in the order of their positions; H or OH if unused. Residues, ends and D or L forms follow the SMILES beside them. CO = O=C([*:1])[*:2]
System: SARS‐CoV‐2 spike (delta/omicron variant) pseudotyped particle
Experiment: microbe, parasite or virus in culture
Format: cell-based
Settings: for pEC50: Severe acute respiratory syndrome coronavirus 2, A549-hACE2-TMPRSS2, read-out: EC50 SARS-CoV-2 entry inhibition
[1] = Severe acute respiratory syndrome coronavirus 2, A549-hACE2-TMPRSS2, read-out: SARS-CoV-2 viral entry inhibition

SMILES	pEC50	inhibition at 50 µM [1] [%]	inhibition at 100 µM [1] [%]
CN(C)C(=O)COC(=O)Cc1ccc(OC(=O)c2ccc(NC(=N)N)cc2)cc1 [camostat]	6.01	97	–
CC(C)[C@H](NC(=O)[C@H](CCCNC(=N)N)NC(=O)N[C@@H](Cc1ccccc1)C(=O)O)C(=O)N[C@H](C=O)CCCNC(=N)N [antipain, L‐Phe‐CO‐L‐Arg‐L‐Val‐L‐Arg‐H] ({Phe-CO}-Arg-Val-Arg-aldehyde)	–	–	81
CN1C2CCC1CC(OC(c1ccc(F)cc1)c1ccc(F)cc1)C2 (stereo not shown) [AHN 1‐055, difluorobenztropine]	< 4.30	–	–

From PMC9874818 (Archiv Der Pharmazie, 2022)
